Columns and labels:
Type in all cases: physicochemical
[1] = Compressibility (tensile strength of compressed tablet); details: about 80 mg, φ6 mm round tooling, compressed at 10 kN
Description: (§1) Approximately 80 mg of Form A and Form I in WO2017002095A1 were weighed into the dies of a φ6 mm round tooling, compressed at 10 kN manually, then stored in a desiccator for 24 hours until complete elastic recovery. Radial crushing force (hardness, H) was tested with an intelligent tablet hardness tester. Diameter (D) and thickness (L) were tested with a caliper. Tensile strength of the powder that with different hardness was calculated with the following formula: T=2H/πDL. Under a certain force, the greater the tensile strength, the better the compressibility.
as §1, with “Form D” for “Form A”, “manually, and” for “manually,”, “powder” for “powder that”
as §1, with “of Form F and Form” for “of Form A and Form”, “kN manually, and then stored” for “kN manually, then stored”, “tested with caliper. Tensile” for “tested with a caliper. Tensile”, “the powder with different” for “the powder that with different”
Approximately 80 mg of Form G and Form I of WO2017002095A1 were weighed into the dies of a φ6 mm round tooling, compressed at 10 kN manually, and then stored in a desiccator for 24 hours until complete elastic recovery. Radial crushing force (hardness, H)) was tested with an intelligent tablet hardness tester. Diameter (D) and thickness (L) were tested with caliper. Tensile strength of the powder with different hardness was calculated with the following formula: T=2H/πDL. Under a certain force, the greater the tensile strength, the better the compressibility.
as §1, with “of Form CS15 and Form” for “of Form A and Form”, “kN manually, and then stored” for “kN manually, then stored”, “tested with caliper. Tensile” for “tested with a caliper. Tensile”, “the powder with different” for “the powder that with different”

[2] = Stability of crystalline form on storage, checked by XRPD; details: for Solid form: XRPD; for Chemical purity on storage: at least 2 months
Description: Approximately 10 mg of Form A of the present disclosure was weighed and stored at different conditions of 25° C./60% RH in open dish, 25° C./60% RH in closed dish, 40° C./75% RH in open dish, and 40° C./75% RH in closed dish. Crystalline forms were checked by XRPD.
Approximately 10 mg of Form D of the present disclosure was weighed and stored at different conditions of 25° C./60% RH in closed dish, 25° C./60% RH in open dish, 40° C./75% RH in closed dish. Crystalline form was checked by XRPD.
Approximately 10 mg of Form F of the present disclosure was weighed and stored at different conditions of 25° C./60% RH in closed dish, 25° C./60% RH in open dish, and 40° C./75% RH in closed dish, 40° C./75% RH in open dish. Crystalline forms were checked by XRPD.
Approximately 10 mg of Form G of the present disclosure was weighed and stored at 25° C./60% RH in closed dish. Crystalline forms were checked by XRPD.
Approximately 10 mg of Form CS15 of the present disclosure was weighed and stored at different conditions of 25° C./60% RH in open dish, 25° C./60% RH in closed dish. Crystalline forms were checked by XRPD.

[3] = Hygroscopicity by dynamic vapor sorption (DVS); details: 80% RH, 25° C.; for Hygroscopicity: Chinese Pharmacopoeia 2015 definition; for Weight gain: DVS
Description: Dynamic vapor sorption (DVS) was applied to test hygroscopicity of Form A with about 10 mg of sample. Weight changes at each relative humidity were recorded in a cycle of 0-95%-0 RH at 25° C.±1° C.
(§2) Description and definition of hygroscopicity (general notice 9103 drug hygroscopicity test guidelines in 2015 edition of Chinese Pharmacopoeia, test at 25° C.+/−1° C., 80% RH). • deliquescent: Sufficient water is absorbed to form a liquid; • very hygroscopic: Increase in mass is equal to or greater than 15 percent; • hygroscopic: Increase in mass is less than 15 percent and equal to or greater than 2 percent; • slightly hygroscopic: Increase in mass is less than 2 percent and equal to or greater than 0.2 percent. • non hygroscopic or almost non hygroscopic: Increase in mass is less than 0.2%.
(§3) Dynamic vapor sorption (DVS) was applied to test hygroscopicity of Form F with about 10 mg of sample. Weight changes at each relative humidity were recorded in a cycle of 0-95%-0 RH at 25° C.±1° C. DVS plot is substantially as depicted in FIG. 32, and XRPD patterns before and after DVS are compared in FIG. 33.
as §2, with “C. +/−1°” for “C.+/−1°”
as §3, with “Form CS15” for “Form F”, “FIG. 38,” for “FIG. 32,”, “FIG. 39.” for “FIG. 33.”

[4] = 25° C./60% RH in closed dish, 2 months
[5] = 25° C./60% RH in open and closed dishes
[6] = 25° C./60% RH in open dish, 2 months
[7] = 40° C./75% RH in closed dish, 2 months
[8] = 40° C./75% RH in open dish, 2 months

With `CC#CC(=O)N1CCC[C@H]1c1nc(-c2ccc(C(=O)Nc3ccccn3)cc2)c2c(N)nccn12` [Form G, (S)-4-(8-amino-3-(1-(but-2-ynoyl)pyrrolidin-2-yl)imidazo[1,5-a]pyrazin-1-yl)-N-(pyridin-2-yl)benzamide] the Tensile strength [1] was 1.62 MPa, the “Time kept stable (crystalline state doesn't change)” value ([2]; 25° C./60% RH in closed dish) was “at least 2 months” and the Solid form [2, 4] was “Form G”. For the same compound, the “Chemical purity on storage” value ([2]; 25° C./60% RH in closed dish) was “remains substantially unchanged” and the Solid form ([2]; Initial) was “Form G”.

In the case of `CC#CC(=O)N1CCC[C@H]1c1nc(-c2ccc(C(=O)Nc3ccccn3)cc2)c2c(N)nccn12` [Form F, (S)-4-(8-amino-3-(1-(but-2-ynoyl)pyrrolidin-2-yl)imidazo[1,5-a]pyrazin-1-yl)-N-(pyridin-2-yl)benzamide], the Tensile strength [1] is reported as 1.02 MPa, the “Time kept stable (crystalline state doesn't change)” value ([2]; 25° C./60% RH in closed dish) is reported as “at least 2 months” and the Solid form [2, 4] is reported as “Form F”. The “Chemical purity on storage” value [2, 5] was “remains substantially unchanged”, the “Time kept stable (crystalline state doesn't change)” value ([2]; 25° C./60% RH in open dish) was “at least 2 months” and the Solid form [2, 6] was “Form F”. The “Time kept stable (crystalline state doesn't change)” value ([2]; 40° C./75% RH in closed dish) was “at least 2 months”, the Solid form [2, 7] was “Form F” and the “Time kept stable (crystalline state doesn't change)” value ([2]; 40° C./75% RH in open dish) was “at least 2 months”. The Solid form [2, 8] was “Form F”, the Hygroscopicity [3] was “non hygroscopic or almost non hygroscopic (Increase in mass is less than 0.2%)” and the Weight gain [3] was 0.09%.

In the case of `CC#CC(=O)N1CCC[C@H]1c1nc(-c2ccc(C(=O)Nc3ccccn3)cc2)c2c(N)nccn12` [Form CS15, (S)-4-(8-amino-3-(1-(but-2-ynoyl)pyrrolidin-2-yl)imidazo[1,5-a]pyrazin-1-yl)-N-(pyridin-2-yl)benzamide], the Tensile strength [1] is reported as 1.18 MPa, the “Time kept stable (crystalline state doesn't change)” value ([2]; 25° C./60% RH in closed dish) is reported as “at least 2 months” and the Solid form [2, 4] is reported as “Form CS15”. For the same compound, the “Chemical purity on storage” value [2, 5] was “remains substantially unchanged”, the “Time kept stable (crystalline state doesn't change)” value ([2]; 25° C./60% RH in open dish) was “at least 2 months” and the Solid form [2, 6] was “Form CS15”. For the same compound, the Solid form ([2]; Initial) was “Form CS15”, the Hygroscopicity [3] was “slightly hygroscopic (Increase in mass is less than 2 percent and equal to or greater than 0.2 percent)” and the Weight gain [3] was 1.78%.

In the case of `CC#CC(=O)N1CCC[C@H]1c1nc(-c2ccc(C(=O)Nc3ccccn3)cc2)c2c(N)nccn12` [Form A, (S)-4-(8-amino-3-(1-(but-2-ynoyl)pyrrolidin-2-yl)imidazo[1,5-a]pyrazin-1-yl)-N-(pyridin-2-yl)benzamide], the Tensile strength [1] is reported as 1.35 MPa, the “Time kept stable (crystalline state doesn't change)” value ([2]; 25° C./60% RH in closed dish) is reported as “at least 2 months” and the Solid form [2, 4] is reported as “Form A”. For the same compound, the “Chemical purity on storage” value [2, 5] was “remains substantially unchanged”, the “Time kept stable (crystalline state doesn't change)” value ([2]; 25° C./60% RH in open dish) was “at least 2 months” and the Solid form [2, 6] was “Form A”. The “Time kept stable (crystalline state doesn't change)” value ([2]; 40° C./75% RH in closed dish) was “at least 2 months”, the Solid form [2, 7] was “Form A” and the “Time kept stable (crystalline state doesn't change)” value ([2]; 40° C./75% RH in open dish) was “at least 2 months”. For the same compound, the Solid form [2, 8] was “Form A”, the Solid form ([2]; Initial) was “Form A” and the Hygroscopicity [3] was “slightly hygroscopic (Increase in mass is less than 2 percent and equal to or greater than 0.2 percent)”. For the same compound, the Weight gain [3] was 0.99%.

— patent publication US11091494B2, “Crystal form of acalabrutinib and preparation method and use thereof” (Crystal Pharmaceutical (Suzhou) Co., Ltd., priority 2018, dated 2021)
